Laboratory results taken from patent US11155849B2, “IMP-producing microorganism and method of producing IMP using the same” (CJ CHEILJEDANG CORPORATION, priority 2017, dated 2021).

Assays:
ATCC6872 = assay: Resistance/susceptibility of strain ATCC6872 to substances (minimal medium, 1.7% agar); assay type: cell-based, Corynebacterium stationis
Excerpt: (§1) ATCC6872 (10^7 cells/mL to 10^8 cells/mL) was suspended in a phosphate buffer (pH 7.0) or in a citrate buffer (pH 5.5) in order to prepare an ATCC6872-derived IMP-producing strain, and then mutation was induced by UV treatment. The resultants were washed twice with a 0.85% saline solution, and then diluted and smeared on a medium containing an appropriate concentration of a substance to be resistant to a minimal medium containing 1.7% agar. Thereafter, colonies were obtained. Each colony was cultured in a nutrient medium and cultured in a seed medium for 24 hours. After 3 to 4 days of culturing in a fermentation medium, colonies with the highest amount of IMP accumulated in the culture medium were selected. In order to produce a high-concentration IMP producing-strain, and to provide adenine auxotrophy, guanine leakage, lysozyme susceptibility, 3,4-dihydroproline resistance, streptomycin resistance, azetidine carboxylic acid resistance, thiaproline resistance, azaserine resistance, sulfaguanidine resistance, norvaline resistance, and trimethoprim resistance, the procedures above were performed sequentially for each substance.
(§2) The compositions of the media are as follows: • Minimal medium: 2% glucose, 0.3% sodium sulfate, 0.1% […], 0.3% K2HPO4, 0.3% magnesium sulfate, calcium chloride (10 mg/L), iron sulfate (10 mg/L), zinc sulfate (1 mg/L), manganese chloride (3.6 mg/L), L-cysteine (20 mg/L), calcium pantothenate (10 mg/L), thiamine hydrochloride (5 mg/L), biotin (30 μg/L), adenine (20 mg/L), guanine (20 mg/L), pH 7.3 • Nutrient medium: 1% peptone, 1% meat juice, 0.25% sodium chloride, 1% yeast extract, 2% agar, pH 7.2 • Seed medium: 1% glucose, 1% peptone, 1% meat juice, 1% yeast extract, 0.25% sodium chloride, adenine (100 mg/L), guanine (100 mg/L), pH 7.5 • Fermentation medium: 0.1% sodium glutamate, 1% ammonium chloride, 1.2% magnesium sulfate, 0.01% calcium chloride, iron sulfate (20 mg/L), manganese sulfate (20 mg/L), zinc sulfate (20 mg/L), copper sulfate (5 mg/L), L-cysteine (23 mg/L), alanine (24 mg/L), nicotinic acid (8 mg/L), biotin (45 μg/L), thiamin hydrochloride (5 mg/L), adenine (30 mg/L), 1.9% phosphoric acid (85%), 2.55% glucose, 1.45% fructose

CJI0323 = assay type: cell-based, Corynebacterium stationis; details: strain CJI0323
Excerpt: as §1, §2

Molecule | resistance (ATCC6872) [µg/mL] | resistance (CJI0323) [µg/mL] | Lysozyme susceptibility (ATCC6872) [µg/mL] | Lysozyme susceptibility (CJI0323) [µg/mL]
O=C(O)C1C=CCN1 (stereo not drawn) [3,4-Dihydroproline] | 1000 | 3500 | – | –
[N-]=[N+]=CC(=O)OC[C@H](N)C(=O)O [Azaserine] | 25 | 100 | – | –
O=C(O)[C@@H]1CCN1 [Azetidine carboxylic acid] | 5000 | 30000 | – | –
CCC[C@H](N)C(=O)O [Norvaline] | 200 | 2000 | – | –
[H]/N=C(/N)N[C@H]1[C@H](O)[C@@H](O)[C@H](O[C@@H]2O[C@@H](C)[C@](O)(C=O)[C@H]2O[C@@H]2O[C@@H](CO)[C@H](O)[C@@H](O)[C@@H]2NC)[C@@H](N/C(N)=N\[H])[C@@H]1O [Streptomycin] | 500 | 2000 | – | –
[H]/N=C(/N)NS(=O)(=O)c1ccc(N)cc1 [Sulfaguanidine] | 50 | 200 | – | –
O=C(O)[C@@H]1CSCN1 [Thiaproline] | 10 | 100 | – | –
COc1cc(Cc2cnc(N)nc2N)cc(OC)c1OC [Trimethoprim] | 20 | 100 | – | –
Lysozyme | – | – | 80 | 8
